Experimental data as given in paper PMC9948168, “Vanillin-Based Indolin-2-one Derivative Bearing a Pyridyl Moiety as a Promising Anti-Breast Cancer Agent via Anti-Estrogenic Activity” (ACS Omega, 2023).

Assays:
Experiment in all cases: NCI-60 one-dose screening
Assay type in all cases: cell-based
786-0 = conditions: Homo sapiens, 786-0, Renal Cancer, read-out: GI (%)
Description: (§1) Compounds 5a–c and 6a–o were tested using standard NCI protocols for in vitro activity at the National Cancer Institute (NCI, Bethesda, Maryland, USA), wherein compounds were tested using one single concentration of 10 μM against 60 cell lines of nine different cancer types. […] Excellent activity was observed against a single NSCLC cell line, EKVX, for compounds 5a–c (GIs = 77–86%, Table 1) with no observed activity for indoles with substituted vanillin 6a–o.
(§2) Anticancer activity was tested against 60 cancer cell lines at the NCI, Bethesda, USA. The screening process was done with a single dosage of 10 μM according to NCI protocols published on the NCI website https://dtp.cancer.gov/discovery_development/nci-60/methodology.htm.

A498 = conditions: Homo sapiens, A498, Renal Cancer, read-out: GI (%)
Description: as §1, §2

A549/ATCC = conditions: Homo sapiens, Non-Small Cell Lung Cancer, read-out: GI (%)
Description: as §1, §2

ACHN = conditions: Homo sapiens, Renal Cancer, read-out: GI (%)
Description: as §1, §2

CCRF-CEM = conditions: Homo sapiens, Leukemias, read-out: GI (%)
Description: as §1, §2

COLO 205 = conditions: Homo sapiens, COLO 205, Colon Cancer, read-out: GI (%)
Description: as §1, §2

EKVX = conditions: Homo sapiens, Non-Small Cell Lung Cancer, read-out: GI (%)
Description: as §1, §2

HCC-2998 = conditions: Homo sapiens, HCC-2998, Colon Cancer, read-out: GI (%)
Description: as §1, §2

HCT-15 = conditions: Homo sapiens, HCT-15, Colon Cancer, read-out: GI (%)
Description: as §1, §2

HL-60(TB) = conditions: Homo sapiens, Leukemias, read-out: GI (%)
Description: as §1, §2

HOP-92 = conditions: Homo sapiens, HOP-92, Non-Small Cell Lung Cancer, read-out: GI (%)
Description: as §1, §2

HS 578T = conditions: Homo sapiens, Breast Cancer, read-out: GI (%)
Description: as §1, §2

HT29 = conditions: Homo sapiens, HT-29, HT29, Colon Cancer, read-out: GI (%)
Description: as §1, §2

KM12 = conditions: Homo sapiens, KM12, Colon Cancer, read-out: GI (%)
Description: as §1, §2

LOX IMVI = conditions: Homo sapiens, Melanoma, read-out: GI (%)
Description: as §1, §2

MCF7 = conditions: Homo sapiens, MCF7, 10 μM; MCF7, Breast Cancer; read-out: GI (%)
Description: as §1, §2

MDA-MB-435 = conditions: Homo sapiens, MDA-MB-435, Melanoma, read-out: GI (%)
Description: as §1, §2

MOLT-4 = conditions: Homo sapiens, MOLT-4, Leukemias, read-out: GI (%)
Description: as §1, §2

NCI-H23 = conditions: Homo sapiens, NCI-H23, Non-Small Cell Lung Cancer, read-out: GI (%)
Description: as §1, §2

NCI-H322M = conditions: Homo sapiens, Non-Small Cell Lung Cancer, read-out: GI (%)
Description: as §1, §2

NCI-H460 = conditions: Homo sapiens, NCI-H460, Non-Small Cell Lung Cancer, read-out: GI (%)
Description: as §1, §2

NCI/ADR-RES = conditions: Homo sapiens, Ovarian Cancer, read-out: GI (%)
Description: as §1, §2

OVCAR-3 = conditions: Homo sapiens, OVCAR-3, 10 μM; OVCAR-3, Ovarian Cancer; read-out: GI (%)
Description: as §1, §2

OVCAR-4 = conditions: Homo sapiens, OVCAR-4, 10 μM; OVCAR-4, Ovarian Cancer; read-out: GI (%)
Description: as §1, §2

OVCAR-5 = conditions: Homo sapiens, OVCAR-5, Ovarian Cancer, read-out: GI (%)
Description: as §1, §2

OVCAR-8 = conditions: Homo sapiens, OVCAR-8, Ovarian Cancer, read-out: GI (%)
Description: as §1, §2

PC-3 = conditions: Homo sapiens, PC-3, Prostate Cancer, read-out: GI (%)
Description: as §1, §2

RPMI-8226 = conditions: Homo sapiens, RPMI-8226, Leukemias, read-out: GI (%)
Description: as §1, §2

SF-268 = conditions: Homo sapiens, SF-268, CNS Cancer, read-out: GI (%)
Description: as §1, §2

SF-539 = conditions: Homo sapiens, SF-539, CNS Cancer, read-out: GI (%)
Description: as §1, §2

SK-MEL-2 = conditions: Homo sapiens, SK-MEL-2, Melanoma, read-out: GI (%)
Description: as §1, §2

SNB-19 = conditions: Homo sapiens, SNB-19, CNS Cancer, read-out: GI (%)
Description: as §1, §2

SR = conditions: Homo sapiens, Leukemias, read-out: GI (%)
Description: as §1, §2

TK-10 = conditions: Homo sapiens, TK-10, Renal Cancer, read-out: GI (%)
Description: as §1, §2

U251 = conditions: Homo sapiens, U-251, U251, CNS Cancer, read-out: GI (%)
Description: as §1, §2

UO-31 = conditions: Homo sapiens, UO-31, Renal Cancer, read-out: GI (%)
Description: as §1, §2

Compound | inhibition at 10 µM (786-0) | inhibition at 10 µM (A498) | inhibition at 10 µM (A549/ATCC) | inhibition at 10 µM (ACHN) | inhibition at 10 µM (CCRF-CEM) | inhibition at 10 µM (COLO 205) | inhibition at 10 µM (EKVX) | inhibition at 10 µM (HCC-2998) | inhibition at 10 µM (HCT-15) | inhibition at 10 µM (HL-60(TB)) | inhibition at 10 µM (HOP-92) | inhibition at 10 µM (HS 578T) | inhibition at 10 µM (HT29) | inhibition at 10 µM (KM12) | inhibition at 10 µM (LOX IMVI) | inhibition at 10 µM (MCF7) | inhibition at 10 µM (MDA-MB-435) | inhibition at 10 µM (MOLT-4) | inhibition at 10 µM (NCI-H23) | inhibition at 10 µM (NCI-H322M) | other results
COc1ccc(COc2ccc(/C=C3/C(=O)Nc4cc(Cl)ccc43)cc2OC)cc1 [6n] | -6.9% | 6.39% | -12.9% | 5.82% | 5.65% | -11.1% | 13.1% | -22.2% | 0.12% | -13.9% | -8.09% | 0.21% | -0.76% | 0.42% | -2.89% | 24% | -5.13% | 0.87% | 2.17% | 3.24% | inhibition at 10 µM (NCI-H460): 20.7%; inhibition at 10 µM (NCI/ADR-RES): 0.37%; inhibition at 10 µM (OVCAR-3): -5.39%; inhibition at 10 µM (OVCAR-4): 17.6%; inhibition at 10 µM (OVCAR-5): 2.3%; inhibition at 10 µM (OVCAR-8): 1.31%; inhibition at 10 µM (PC-3): 7.65%; inhibition at 10 µM (RPMI-8226): 9.52%; inhibition at 10 µM (SF-268): 0.26%; inhibition at 10 µM (SF-539): 9.72%; inhibition at 10 µM (SK-MEL-2): -0.29%; inhibition at 10 µM (SNB-19): 1.46%; inhibition at 10 µM (SR): 0.64%; inhibition at 10 µM (TK-10): -64.4%; inhibition at 10 µM (U251): -6.11%; inhibition at 10 µM (UO-31): 18.6%
COc1cc(C=C2C(=O)Nc3cc(Cl)ccc32)ccc1OCc1ccc(Cl)cc1 (mixture of isomers) [6l] | -7.1% | 5.41% | -5.86% | 7.13% | 3.42% | -13.1% | 24.8% | -18.5% | 6.77% | -11.5% | 15.3% | 4.96% | -5.54% | 3.74% | -8.24% | 50 to 65% | -5.52% | 6.35% | 0.58% | 4.89% | inhibition at 10 µM (NCI-H460): 9.67%; inhibition at 10 µM (NCI/ADR-RES): 0.31%; inhibition at 10 µM (OVCAR-3): -3.06%; inhibition at 10 µM (OVCAR-4): 25.6%; inhibition at 10 µM (OVCAR-5): -2.97%; inhibition at 10 µM (OVCAR-8): 2.85%; inhibition at 10 µM (PC-3): 11.1%; inhibition at 10 µM (RPMI-8226): 11.9%; inhibition at 10 µM (SF-268): -5.63%; inhibition at 10 µM (SF-539): 8.46%; inhibition at 10 µM (SK-MEL-2): -8.37%; inhibition at 10 µM (SNB-19): -5.43%; inhibition at 10 µM (SR): 4.64%; inhibition at 10 µM (TK-10): -59.6%; inhibition at 10 µM (U251): -5.85%; inhibition at 10 µM (UO-31): 22.2%
COc1cc(C=C2C(=O)Nc3ccccc32)ccc1O (mixture of isomers) [5a] | -0.72% | 2.96% | 3.48% | 22.8% | 10.2% | -13.8% | 82.6% | -15% | 25.7% | 15.1% | 35% | 47.9% | -1.86% | 9.4% | 28.6% | 44.8% | 18.5% | 10.4% | 16% | 19.5% | inhibition at 10 µM (NCI-H460): 8.35%; inhibition at 10 µM (NCI/ADR-RES): 8.73%; inhibition at 10 µM (OVCAR-3): 19.4%; inhibition at 10 µM (OVCAR-4): 18.2%; inhibition at 10 µM (OVCAR-5): -2.51%; inhibition at 10 µM (OVCAR-8): 15.5%; inhibition at 10 µM (PC-3): 15.6%; inhibition at 10 µM (RPMI-8226): 10.8%; inhibition at 10 µM (SF-268): 14.7%; inhibition at 10 µM (SF-539): 22.6%; inhibition at 10 µM (SK-MEL-2): 7.03%; inhibition at 10 µM (SNB-19): 6.94%; inhibition at 10 µM (SR): 36%; inhibition at 10 µM (TK-10): -90.5%; inhibition at 10 µM (U251): 22.2%; inhibition at 10 µM (UO-31): 47.7%
